Assay results published in PMC9969401, “Discovery of 2-(3-Benzamidopropanamido)thiazole-5-carboxylate Inhibitors of the Kinesin HSET (KIFC1) and the Development of Cellular Target Engagement Probes” (Journal of Medicinal Chemistry, 2023).

Experiments:
DLD1 cells (4NCA and 4N) = format: cell-based; details: human
Procedure: Inhibition of HSET-mediated clustering was measured using a phenotypic assay measuring the formation of multipolar metaphase spindles in DLD1 cells with (4NCA) or without (4N) centrosome amplification. 4NCA cells were generated by treating 2N DLD1 cells with 2 μΜ DCB for 24 h, washed, and released in growth media for 24 h. 4N and 4NCA DLD1 cells were plated in 96-well ibidi μ-Clear plates (IB-89626, ibidi) with a no. 1.5 polymer coverslip bottom with optimal imaging properties. To enrich the mitotic population, cells were first treated for 3.5 h with 8 μM pro-TAME (I-440-01M, R&D system), an inhibitor of APC/C that transiently arrests cells in metaphase without affecting the structure of the spindle. Following the initial arrest, cells were treated with HSET compounds in the presence of 8 μM MG-132 (S2619, SelleckChem), a proteasome inhibitor that helps to maintain the metaphase arrest, where the number of spindle poles/cell can be optimally quantified by an automated segmentation analysis.
Cells were then fixed in methanol and stained for 3 h for mitotic pole marker aurora A (1:1000 610939 mouse anti-IAK1, BD Biosciences) and phosphorylated histone H3 (1:1500 ab47297 anti-histone H3 pS10, Abcam) as a marker of mitotic cells in 1.5% FBS in PBS. Following primary antibody treatment, cells were incubated with secondary antibodies Alexa Fluor 488 goat antimouse and Alexa Fluor 555 goat antirabbit (1:1500, A11029 and A21429, respectively, Life Technologies) together with 1 μg/mL DAPI (D9542, Sigma) in 1.5% FBS in PBS. Image acquisition was performed at 10× using the GE INCELL 2200 High Content Imaging System (Cytiva) and analyzed using the InCell Investigator software. Mitotic cells were identified by high pHH3 staining and were scored as multipolar if they had more than two mitotic spindle poles. The percentage of multipolar mitoses was calculated by dividing the number of multipolar mitoses by the total of all visible mitoses in one well of a 96-well plate (n > 100 for each replicate, two replicates per concentration point).
3. […]

[1] = BALB/c mouse plasma stability assay; format: in vitro ADME; details: read-out: estimated half-life in plasma
DLD1 HSET KO cells = test: Click probe localization imaging in DLD1 HSET KO cells (negative control); format: cell-based, human; details: DLD1 HSET KO, Tz-Cy5 800nM
Procedure: The Cy-5 tetrazine dye selected for this experiment is not cell-permeable, thus fixation and permeabilization of cells were necessary prior to its addition. Experiments were conducted in DLD1 4N cells and, as a negative control, isogenic 2N DLD1 HSET KO cells in which HSET expression was prevented by the disruption of the HSET gene using CRISPR. Cells were treated first with proTAME for 2 h to accumulate mitotic events, followed by treatment with the TCO probe 40 for 45 min. The live cells were then fixed and permeabilized before treatment with the tetrazine-Cy5 dye and incubation to allow the IEDDA reaction to occur. Additionally, the cells were stained for the endogenous HSET protein using indirect immunofluorescence and imaged to observe the fluorescence from both the TCO probe and antibody-labeled HSET. […] A 3 μM concentration of the probe 40 gave an acceptable signal-to-noise ratio of around 2:1. Even under these optimal conditions, some residual uniform cytoplasmic Cy5 signal was observed within the cells. However, a clear Cy5 decoration of the mitotic spindle was seen, which overlapped with the signal from the antibody-probed endogenous HSET protein (Figures 2A and S6). […] We observed a 14–17-fold increase in signal in DLD1 4N cells treated with 40 relative to tetrazine-Cy5 alone. […] Comparing the intensity of click probe labeling coincident with the mitotic spindle in DLD1 4N cells to that in DLD1 HSET KO cells after both were treated with 40, we observed a twofold higher signal in the former.
Direct target engagement of active inhibitor 36 was measured by calculating its capacity to displace the TCO-containing probe 40. 4N DLD1 cells and DLD1 HSET KO cells (negative control) were plated in 96-well ibidi μ-Clear plates (IB-89626, ibidi). Cells were first treated for 2 h with 8 μM pro-TAME (I-440–01M, R&D system) to accumulate mitotic cells and were then treated with 8 μM MG-132 (S2619, SelleckChem) and 3 μM 40, alone or together with active inhibitor 36 in DMEM media with 1% FBS for 45 min. Cells were then washed three times in DMEM, with the second wash being incubated for 10 min to ensure the optimal reduction of unspecific compound binding. After an additional PBS wash, cells were then fixed in 4% PFA/PBS (15670799, Thermo Scientific) prior to incubation with 400 nM tetraszine-Cy5 (CLK-015-05, Jena Biosciences) in 1.5% FBS/PBS for 10 min at room temperature. Cells were permeabilized by the addition of 0.5% TritonX-100/PBS for 5 min before being stained overnight for Pericentrin (1:1500 ab28144 mouse anti-PCNT, Abcam) and KIFC1 (1:1500 12313S rabbit anti-KIFC1, Cell Signaling Technologies). Secondary antibodies Alexa Fluor 488 donkey antirabbit and Alexa Fluor 555 donkey antimouse (1:1500, A21206 and A31570, respectively, Life Technologies) were added together with 1 μg/mL DAPI (D9542, Sigma) in 1.5% FBS in PBS.
Plates were imaged at 40× using a Zeiss LSM980 confocal microscope with Airyscan 2. The subsequent analysis and quantification were performed using 3D image segmentation with the Arivis4D software. Mitotic cells were segmented by selecting for the highest density (integrated DAPI intensity/total volume), and the mitotic pole areas were segmented using the Pericentrin signal. The signal of the click probe (Cy5) and total KIFC1 (FITC) was measured on the mitotic pole area, and both were normalized to the control condition containing 40 probe alone. The ratio of probe per target (click probe pole integrated intensity signal/KIFC1 pole integrated intensity signal) was used to calculate the occupancy of the probe in the target protein and normalized to the control condition containing 40 probe alone (n > 100 for each replicate, two replicates per concentration point).

| Compound | concentration at which cellular toxicity observed (DLD1 cells (4NCA and 4N)) [µM] | half-life [1] [h] | Average Pixel intensity (DLD1 HSET KO cells; 5μM, Panel A: 3 quick washes at room temperature) | Average Pixel intensity (DLD1 HSET KO cells; 5μM, Panel B: 2 quick washes then 1 at 37 °C for 5 minutes) | Average Pixel intensity (DLD1 HSET KO cells; 5μM, Panel C: 2 quick washes then 1 at 37 °C for 10 minutes) | Average Pixel intensity (DLD1 HSET KO cells; 10μM, Panel A: 3 quick washes at room temperature) | Average Pixel intensity (DLD1 HSET KO cells; 10μM, Panel B: 2 quick washes then 1 at 37 °C for 5 minutes) | Average Pixel intensity (DLD1 HSET KO cells; 10μM, Panel C: 2 quick washes then 1 at 37 °C for 10 minutes) |
| --- | --- | --- | --- | --- | --- | --- | --- | --- |
| CCCOC(=O)c1sc(NC(=O)C[C@H](CCCNC)NC(=O)c2cccc(-c3noc(C)n3)c2)nc1C [Compound 35, Propyl (S)-4-Methyl-2-(3-(3-(5-methyl-1,2,4-oxadiazol-3-yl)benzamido)-6-(methylamino)hexanamido)thiazole-5-carboxylate] | 60 |  |  |  |  |  |  |  |
| CCCOC(=O)c1sc(NC(=O)CCNC(=O)c2cccc(-c3noc(C)n3)c2)nc1C [Compound 32, Propyl 4-Methyl-2-(3-(3-(5-methyl-1,2,4-oxadiazol-3-yl)benzamido)propanamido)thiazole-5-carboxylate] | > 15 | 3.58 |  |  |  |  |  |  |
| CCCOC(=O)c1sc(NC(=O)C[C@H](CCCN(C)C(=O)O[C@@H]2CC/C=C/CCC2)NC(=O)c2cccc(-c3noc(C)n3)c2)nc1C [Compound 38, Propyl 2-((S)-6-(((((S,E)-Cyclooct-4-en-1-yl)oxy)carbonyl)(methyl)amino)-3-(3-(5-methyl-1,2,4-oxadiazol-3-yl)benzamido)hexanamido)-4-methylthiazole-5-carboxylate] |  |  | 799 | 752 | 702 | 1464 | 1121 | 803 |
